Source: ChEMBL document CHEMBL4800729 (2021)

Assays:
[1] = target: Histamine H1 receptor (Homo sapiens) (UniProt P35367); settings: Compound concentration 10.0 uM
[2] = target: Serine/threonine-protein kinase DCLK2 (Homo sapiens) (UniProt Q8N568); assay: DCAMKL2(h) Millipore kinase panel; settings: Compound concentration 1.0 uM
Rattus norvegicus = organism: Rattus norvegicus; settings: Compound concentration 10.0 uM
Homo sapiens = organism: Homo sapiens; settings: Compound concentration 10.0 uM
[3] = target: Calcium/calmodulin-dependent protein kinase type 1D (Homo sapiens) (UniProt Q8IU85); assay: CaMKIdelta(h) Millipore kinase panel; settings: Compound concentration 1.0 uM
[4] = target: Ephrin type-B receptor 2 (Homo sapiens) (UniProt P29323); assay: EphB2(h) Millipore kinase panel; settings: Compound concentration 1.0 uM
[5] = target: Cyclin-dependent kinase 5/CDK5 activator 1 (Homo sapiens) (UniProt Q00535+Q15078); assay: CDK5/p25(h) Millipore kinase panel; format: protein-complex assay; settings: Compound concentration 1.0 uM
Sequence of Cyclin-dependent kinase 5/CDK5 activator 1 (Homo sapiens) (Q00535 whole entry): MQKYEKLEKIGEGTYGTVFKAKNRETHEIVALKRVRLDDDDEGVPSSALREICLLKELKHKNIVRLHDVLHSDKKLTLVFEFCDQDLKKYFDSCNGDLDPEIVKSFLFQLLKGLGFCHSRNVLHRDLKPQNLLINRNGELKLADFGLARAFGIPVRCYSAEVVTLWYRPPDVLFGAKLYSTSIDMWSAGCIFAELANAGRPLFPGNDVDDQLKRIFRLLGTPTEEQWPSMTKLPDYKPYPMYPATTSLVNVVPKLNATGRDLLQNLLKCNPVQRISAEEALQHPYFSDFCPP
Sequence of Cyclin-dependent kinase 5/CDK5 activator 1 (Homo sapiens) (Q15078 99-307 partner limits assumed): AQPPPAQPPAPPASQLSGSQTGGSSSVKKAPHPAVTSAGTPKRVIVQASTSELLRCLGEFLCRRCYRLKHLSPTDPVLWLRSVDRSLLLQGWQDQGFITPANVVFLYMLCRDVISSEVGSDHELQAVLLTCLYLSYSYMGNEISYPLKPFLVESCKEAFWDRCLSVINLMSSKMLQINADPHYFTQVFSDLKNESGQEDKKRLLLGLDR

[6] = target: Beta-1 adrenergic receptor (Homo sapiens) (UniProt P08588); settings: Compound concentration 10.0 uM
[7] = target: Myosin light chain kinase (Homo sapiens) (UniProt Q32MK0); assay: MLCK(h) Millipore kinase panel; settings: Compound concentration 1.0 uM
[8] = target: RAC-beta serine/threonine-protein kinase (Homo sapiens) (UniProt P31751); assay: PKBbeta(h) Millipore kinase panel; settings: Compound concentration 1.0 uM
Sequence of RAC-beta serine/threonine-protein kinase (Homo sapiens) (P31751 whole entry): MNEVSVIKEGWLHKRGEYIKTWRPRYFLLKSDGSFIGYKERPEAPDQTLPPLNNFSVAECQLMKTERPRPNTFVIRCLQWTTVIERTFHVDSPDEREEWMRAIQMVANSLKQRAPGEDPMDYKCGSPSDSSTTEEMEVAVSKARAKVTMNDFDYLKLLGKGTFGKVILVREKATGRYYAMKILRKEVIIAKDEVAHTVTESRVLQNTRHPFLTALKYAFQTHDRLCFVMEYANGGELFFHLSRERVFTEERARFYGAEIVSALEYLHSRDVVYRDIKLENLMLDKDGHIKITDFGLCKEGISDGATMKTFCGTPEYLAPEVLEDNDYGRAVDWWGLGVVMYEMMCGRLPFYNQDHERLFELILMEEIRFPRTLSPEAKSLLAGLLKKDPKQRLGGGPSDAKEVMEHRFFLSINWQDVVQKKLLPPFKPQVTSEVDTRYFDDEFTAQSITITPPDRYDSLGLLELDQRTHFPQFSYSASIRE

[9] = target: Proto-oncogene tyrosine-protein kinase receptor Ret (Homo sapiens) (UniProt P07949); assay: Ret(h) Millipore kinase panel; settings: Compound concentration 1.0 uM
[10] = target: Dual specificity protein kinase CLK4 (Homo sapiens) (UniProt Q9HAZ1); assay: CLK4(h) Millipore kinase panel; settings: Compound concentration 1.0 uM
[11] = target: Mitogen-activated protein kinase kinase kinase 5 (Homo sapiens) (UniProt Q99683); assay: ASK1(h) Millipore kinase panel; settings: Compound concentration 1.0 uM
[12] = target: Serine/threonine-protein kinase TAO2 (Homo sapiens) (UniProt Q9UL54); assay: TAO2(h) Millipore kinase panel; settings: Compound concentration 1.0 uM
[13] = target: Proto-oncogene tyrosine-protein kinase Src (Homo sapiens) (UniProt P12931); assay: cSRC(h) Millipore kinase panel; settings: Compound concentration 1.0 uM
[14] = target: Serine/threonine-protein kinase Chk2 (Homo sapiens) (UniProt O96017); assay: CHK2(h) Millipore kinase panel; settings: Compound concentration 1.0 uM
[15] = target: Dual specificity tyrosine-phosphorylation-regulated kinase 3 (Homo sapiens) (UniProt O43781); assay: DYRK3(h) Millipore kinase panel; settings: Compound concentration 1.0 uM
[16] = target: Protein kinase C beta type (Homo sapiens) (UniProt P05771); assay: PKCbetaI(h) Millipore kinase panel; settings: Compound concentration 1.0 uM
[17] = target: Tyrosine-protein kinase HCK (Homo sapiens) (UniProt P08631); assay: Hck(h) Millipore kinase panel; settings: Compound concentration 1.0 uM
[18] = target: D(2) dopamine receptor (Homo sapiens) (UniProt P14416); settings: Compound concentration 10.0 uM
[19] = target: Muscle, skeletal receptor tyrosine-protein kinase (Homo sapiens) (UniProt O15146); assay: MuSK(h) Millipore kinase panel; settings: Compound concentration 1.0 uM
Sequence of Muscle, skeletal receptor tyrosine-protein kinase (Homo sapiens) (O15146 whole entry): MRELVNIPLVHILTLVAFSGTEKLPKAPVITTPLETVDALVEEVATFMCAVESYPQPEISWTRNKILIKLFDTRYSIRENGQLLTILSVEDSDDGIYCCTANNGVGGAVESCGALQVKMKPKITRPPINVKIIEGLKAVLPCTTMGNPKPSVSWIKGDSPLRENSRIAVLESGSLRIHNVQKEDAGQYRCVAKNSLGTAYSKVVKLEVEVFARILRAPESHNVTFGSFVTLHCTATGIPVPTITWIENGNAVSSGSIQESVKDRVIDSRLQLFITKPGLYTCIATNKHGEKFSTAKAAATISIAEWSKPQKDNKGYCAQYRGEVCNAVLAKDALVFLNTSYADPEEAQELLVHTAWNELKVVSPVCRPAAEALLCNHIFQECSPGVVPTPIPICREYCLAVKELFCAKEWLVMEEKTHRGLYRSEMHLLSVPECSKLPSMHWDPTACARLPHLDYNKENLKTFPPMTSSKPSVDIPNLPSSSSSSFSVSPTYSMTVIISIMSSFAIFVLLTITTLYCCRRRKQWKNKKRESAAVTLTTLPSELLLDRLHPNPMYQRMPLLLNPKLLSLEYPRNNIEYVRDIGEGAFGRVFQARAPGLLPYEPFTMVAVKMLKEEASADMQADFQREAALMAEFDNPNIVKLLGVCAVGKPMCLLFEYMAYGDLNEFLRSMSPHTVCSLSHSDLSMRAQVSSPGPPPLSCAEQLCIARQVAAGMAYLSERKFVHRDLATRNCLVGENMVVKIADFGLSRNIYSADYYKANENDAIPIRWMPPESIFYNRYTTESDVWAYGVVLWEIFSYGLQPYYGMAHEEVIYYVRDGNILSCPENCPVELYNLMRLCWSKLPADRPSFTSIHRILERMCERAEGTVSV

[20] = target: cAMP-dependent protein kinase catalytic subunit alpha (Homo sapiens) (UniProt P17612); assay: PKA(h) Millipore kinase panel; settings: Compound concentration 1.0 uM
[21] = target: Tyrosine-protein kinase ABL2 (Homo sapiens) (UniProt P42684); assay: Arg(h) Millipore kinase panel; settings: Compound concentration 1.0 uM
[22] = target: SRSF protein kinase 3 (Homo sapiens) (UniProt Q9UPE1); assay: MSSK1(h) Millipore kinase panel; settings: Compound concentration 1.0 uM
[23] = target: Activin receptor type-1 (Homo sapiens) (UniProt Q04771); assay: ALK2(h) Millipore kinase panel; settings: Compound concentration 1.0 uM
[24] = target: Inhibitor of nuclear factor kappa-B kinase subunit epsilon (Homo sapiens) (UniProt Q14164); assay: IKKepsilon(h Millipore kinase panel; settings: Compound concentration 1.0 uM
[25] = target: AP2-associated protein kinase 1 (Homo sapiens) (UniProt Q2M2I8); assay: AAK1(h) Millipore kinase panel; settings: Compound concentration 1.0 uM
Sequence of AP2-associated protein kinase 1 (Homo sapiens) (Q2M2I8 whole entry, looked up): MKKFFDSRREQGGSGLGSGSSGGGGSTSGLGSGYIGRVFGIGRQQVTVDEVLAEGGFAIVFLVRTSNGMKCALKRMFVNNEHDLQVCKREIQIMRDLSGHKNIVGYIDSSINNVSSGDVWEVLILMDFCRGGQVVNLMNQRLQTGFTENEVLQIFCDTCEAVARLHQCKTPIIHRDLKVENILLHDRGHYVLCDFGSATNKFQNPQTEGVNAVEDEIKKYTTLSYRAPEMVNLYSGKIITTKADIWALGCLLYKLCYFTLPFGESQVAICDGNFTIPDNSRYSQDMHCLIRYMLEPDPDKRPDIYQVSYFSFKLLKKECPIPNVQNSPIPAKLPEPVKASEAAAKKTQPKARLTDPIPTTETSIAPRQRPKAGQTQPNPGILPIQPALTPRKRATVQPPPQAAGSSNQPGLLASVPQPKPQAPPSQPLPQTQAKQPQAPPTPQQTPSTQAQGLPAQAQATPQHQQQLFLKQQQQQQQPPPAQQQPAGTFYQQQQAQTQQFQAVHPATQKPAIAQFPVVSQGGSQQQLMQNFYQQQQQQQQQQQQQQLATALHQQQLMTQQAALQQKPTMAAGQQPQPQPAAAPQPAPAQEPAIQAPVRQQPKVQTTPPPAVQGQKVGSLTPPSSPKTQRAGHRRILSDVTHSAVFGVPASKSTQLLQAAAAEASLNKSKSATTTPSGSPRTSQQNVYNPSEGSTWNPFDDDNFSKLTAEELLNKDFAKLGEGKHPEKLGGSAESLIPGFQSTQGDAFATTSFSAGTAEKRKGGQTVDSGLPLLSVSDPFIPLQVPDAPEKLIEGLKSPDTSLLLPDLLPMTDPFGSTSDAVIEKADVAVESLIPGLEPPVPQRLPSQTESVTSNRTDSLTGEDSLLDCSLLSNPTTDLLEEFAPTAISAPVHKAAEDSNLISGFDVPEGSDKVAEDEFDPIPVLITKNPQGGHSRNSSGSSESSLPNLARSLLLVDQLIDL

[26] = target: Mu-type opioid receptor (Homo sapiens) (UniProt P35372); settings: Compound concentration 10.0 uM
[27] = target: Serine/threonine-protein kinase PAK 4 (Homo sapiens) (UniProt O96013); assay: PAK4(h) Millipore kinase panel; settings: Compound concentration 1.0 uM
[28] = target: Ribosomal protein S6 kinase alpha-4 (Homo sapiens) (UniProt O75676); assay: MSK2(h) Millipore kinase panel; settings: Compound concentration 1.0 uM
[29] = target: GABA-A receptor; anion channel; assay: GPCRScan assay: inhibition of GABAA/BZP; format: protein-complex assay, Rattus norvegicus; design: radioligand conc. used [nm] 0.6 – 4.0, parental cells brain tissue
[30] = target: Serine-protein kinase ATM (Homo sapiens) (UniProt Q13315); assay: ATM(h) Millipore kinase panel; settings: Compound concentration 1.0 uM
[31] = target: Serine/threonine-protein kinase STK11 (Homo sapiens) (UniProt Q15831); assay: LKB1(h) Millipore kinase panel; settings: Compound concentration 1.0 uM
[32] = target: Serine/threonine-protein kinase/endoribonuclease IRE1 (Homo sapiens) (UniProt O75460); assay: IRE1(h) Millipore kinase panel; settings: Compound concentration 1.0 uM
[33] = target: NUAK family SNF1-like kinase 1 (Homo sapiens) (UniProt O60285); assay: ARK5(h) Millipore kinase panel; settings: Compound concentration 1.0 uM
[34] = target: Homeodomain-interacting protein kinase 1 (Homo sapiens) (UniProt Q86Z02); assay: HIPK1(h) Millipore kinase panel; settings: Compound concentration 1.0 uM
[35] = target: Phosphatidylinositol 3-kinase C2 domain-containing subunit gamma (Homo sapiens) (UniProt O75747); assay: PI3KC2g(h) Millipore kinase panel; settings: Compound concentration 1.0 uM
[36] = target: 5-hydroxytryptamine receptor 2B (Homo sapiens, UniProt P41595); settings: Compound concentration 10.0 uM
Sequence of 5-hydroxytryptamine receptor 2B (P41595 whole entry): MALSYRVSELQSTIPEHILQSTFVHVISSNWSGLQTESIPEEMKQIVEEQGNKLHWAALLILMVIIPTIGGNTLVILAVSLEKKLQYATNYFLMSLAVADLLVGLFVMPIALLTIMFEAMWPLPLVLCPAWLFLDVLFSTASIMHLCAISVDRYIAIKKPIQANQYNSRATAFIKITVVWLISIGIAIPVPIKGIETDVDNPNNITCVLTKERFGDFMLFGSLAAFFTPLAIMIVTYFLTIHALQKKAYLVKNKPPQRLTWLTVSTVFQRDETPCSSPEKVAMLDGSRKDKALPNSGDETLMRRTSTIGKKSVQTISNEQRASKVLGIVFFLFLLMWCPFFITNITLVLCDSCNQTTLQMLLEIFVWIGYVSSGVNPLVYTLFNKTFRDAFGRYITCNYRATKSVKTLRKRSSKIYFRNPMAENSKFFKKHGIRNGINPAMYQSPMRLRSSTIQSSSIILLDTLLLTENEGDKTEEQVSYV

[37] = target: Serine/threonine-protein kinase NIM1 (Homo sapiens) (UniProt Q8IY84); assay: NIM1(h) Millipore kinase panel; settings: Compound concentration 1.0 uM
[38] = target: cAMP-dependent protein kinase catalytic subunit PRKX (Homo sapiens) (UniProt P51817); assay: PrKX(h) Millipore kinase panel; settings: Compound concentration 1.0 uM
[39] = target: Serine/threonine-protein kinase 25 (Homo sapiens) (UniProt O00506); assay: STK25(h) Millipore kinase panel; settings: Compound concentration 1.0 uM
[40] = target: Tyrosine-protein kinase Fer (Homo sapiens) (UniProt P16591); assay: Fer(h) Millipore kinase panel; settings: Compound concentration 1.0 uM
[41] = target: Sodium-dependent noradrenaline transporter (Homo sapiens) (UniProt P23975); settings: Compound concentration 10.0 uM
[42] = target: Mitogen-activated protein kinase 11 (Homo sapiens) (UniProt Q15759); assay: SAPK2b(h) Millipore kinase panel; settings: Compound concentration 1.0 uM
Sequence of Mitogen-activated protein kinase 11 (Homo sapiens) (Q15759 whole entry): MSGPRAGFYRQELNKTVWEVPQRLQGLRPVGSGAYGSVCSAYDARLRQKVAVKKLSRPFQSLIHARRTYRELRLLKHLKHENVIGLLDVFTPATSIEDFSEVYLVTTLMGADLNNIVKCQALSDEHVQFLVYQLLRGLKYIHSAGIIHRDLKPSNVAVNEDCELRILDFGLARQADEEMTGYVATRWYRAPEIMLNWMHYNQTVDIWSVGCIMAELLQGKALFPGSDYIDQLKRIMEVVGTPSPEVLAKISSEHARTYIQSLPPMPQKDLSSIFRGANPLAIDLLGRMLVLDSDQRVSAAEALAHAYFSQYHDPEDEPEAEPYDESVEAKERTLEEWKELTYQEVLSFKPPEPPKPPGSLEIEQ

[43] = target: GABA-A receptor; anion channel (Rattus norvegicus) (UniProt O09028+P15431+P18506+P18508+P19969+P20236+P23574+P23576+P28471+P28473+P30191+P62813+P63079+P63138+Q91ZM7+Q9ES14); settings: Compound concentration 10.0 uM
[44] = target: Fibroblast growth factor receptor 1 (Homo sapiens) (UniProt P11362); assay: FGFR1(h) Millipore kinase panel; settings: Compound concentration 1.0 uM
[45] = target: Serine/threonine-protein kinase Sgk1 (Homo sapiens) (UniProt O00141); assay: SGK(h) Millipore kinase panel; settings: Compound concentration 1.0 uM
[46] = target: Serine/threonine-protein kinase PRP4 homolog (Homo sapiens) (UniProt Q13523); assay: PRP4(h) Millipore kinase panel; settings: Compound concentration 1.0 uM
[47] = target: Serine/threonine-protein kinase NLK (Homo sapiens) (UniProt Q9UBE8); assay: NLK(h) Millipore kinase panel; settings: Compound concentration 1.0 uM

Sequence of Serine/threonine-protein kinase DCLK2 (Homo sapiens) (Q8N568 whole entry): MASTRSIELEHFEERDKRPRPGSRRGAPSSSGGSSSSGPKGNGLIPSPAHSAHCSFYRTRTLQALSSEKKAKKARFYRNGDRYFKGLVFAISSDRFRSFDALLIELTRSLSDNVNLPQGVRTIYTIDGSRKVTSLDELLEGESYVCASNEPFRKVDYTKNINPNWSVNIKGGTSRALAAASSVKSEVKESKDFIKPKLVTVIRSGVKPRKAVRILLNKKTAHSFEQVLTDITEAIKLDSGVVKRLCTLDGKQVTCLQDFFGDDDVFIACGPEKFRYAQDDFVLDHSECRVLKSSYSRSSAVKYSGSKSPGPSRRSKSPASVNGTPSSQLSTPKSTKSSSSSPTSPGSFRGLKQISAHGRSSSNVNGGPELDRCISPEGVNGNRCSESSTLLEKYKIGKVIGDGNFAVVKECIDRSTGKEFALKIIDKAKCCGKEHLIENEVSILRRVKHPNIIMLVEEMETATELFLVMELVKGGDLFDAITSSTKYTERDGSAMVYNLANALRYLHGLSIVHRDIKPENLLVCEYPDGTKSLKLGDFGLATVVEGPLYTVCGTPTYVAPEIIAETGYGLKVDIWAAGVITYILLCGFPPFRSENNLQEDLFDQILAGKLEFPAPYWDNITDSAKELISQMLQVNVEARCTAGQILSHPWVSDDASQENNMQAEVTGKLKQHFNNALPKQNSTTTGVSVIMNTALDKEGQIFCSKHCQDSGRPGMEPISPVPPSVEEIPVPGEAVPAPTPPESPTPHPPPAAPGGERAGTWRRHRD
Sequence of Histamine H1 receptor (Homo sapiens) (P35367 whole entry): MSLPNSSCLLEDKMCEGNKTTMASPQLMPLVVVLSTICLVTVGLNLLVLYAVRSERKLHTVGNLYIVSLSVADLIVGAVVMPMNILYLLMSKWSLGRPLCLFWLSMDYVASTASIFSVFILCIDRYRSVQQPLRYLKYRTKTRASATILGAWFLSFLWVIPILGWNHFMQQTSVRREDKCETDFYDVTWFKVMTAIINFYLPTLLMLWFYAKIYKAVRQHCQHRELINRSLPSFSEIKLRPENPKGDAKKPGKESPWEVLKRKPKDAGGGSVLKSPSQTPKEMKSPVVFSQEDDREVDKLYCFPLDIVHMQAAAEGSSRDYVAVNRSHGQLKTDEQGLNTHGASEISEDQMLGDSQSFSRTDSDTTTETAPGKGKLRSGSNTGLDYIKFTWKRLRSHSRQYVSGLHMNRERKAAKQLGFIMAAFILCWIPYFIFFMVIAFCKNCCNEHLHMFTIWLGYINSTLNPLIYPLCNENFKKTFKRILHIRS

Structure (SMILES): CC[C@@H](Nc1c(C#N)c(-c2ccc(-c3cccc(C)c3F)cc2)nc2cnccc12)C(=O)O [BAY-091]
- inhibition [1]: 12.3%
- inhibition [2]: -2.01%
- inhibition (Rattus norvegicus): 1%
- inhibition (Homo sapiens): -8%
- inhibition [3]: 4.68%
- inhibition [4]: 1.4%
- inhibition [5]: 6.65%
- inhibition [6]: 4.09%
- inhibition [7]: -5.27%
- inhibition [8]: 3.52%
- inhibition [9]: -3.56%
- inhibition [10]: 18.8%
- inhibition [11]: -9.98%
- inhibition [12]: 10.3%
- inhibition [13]: 7.51%
- inhibition [14]: 5.38%
- inhibition [15]: 7.66%
- inhibition [16]: 16.5%
- inhibition [17]: 0.45%
- inhibition [18]: 8%
- inhibition [19]: 5.1%
- inhibition [20]: 11%
- inhibition [21]: 7.75%
- inhibition [22]: 4.51%
- inhibition [23]: 5.14%
- inhibition [24]: 10.2%
- inhibition [25]: 7.44%
- inhibition [26]: 13%
- inhibition [27]: 1.36%
- inhibition [28]: -3.96%
- Ki [29]: 6.83 µM
- inhibition [30]: 0.32%
- inhibition [31]: 5.7%
- inhibition [32]: 2.72%
- inhibition [33]: 4.55%
- inhibition [34]: 3.6%
- inhibition [35]: 25.4%
- inhibition [36]: 98%
- inhibition [37]: 12%
- inhibition [38]: 2.66%
- inhibition [39]: 3.01%
- inhibition [40]: 5.23%
- inhibition [41]: -2.64%
- inhibition [42]: -2.08%
- inhibition [43]: 29.9%
- inhibition [44]: 6.44%
- inhibition [45]: -6.56%
- inhibition [46]: 18.9%
- inhibition [47]: 8.59%
